{"source": "ChEMBL document CHEMBL1158648", "about": "“The Lignans of Polygala polygama (Polygalaceae): Deoxypodophyllotoxin and Three New Lignan Lactones” (1979)", "test_system": "P388", "assay": "In vivo antitumor activity against mouse P388 cells at 40 mg/kg", "format": "functional"}
{"smiles": "COc1ccc2c(c1OC)[C@@H](c1ccc3c(c1)OCO3)[C@H]1C(=O)OC[C@@H]1C2", "note": "[POLYGAMATIN]", "values": [{"measurement": "T/C", "value": 144, "unit": "%"}]}
{"smiles": "COc1cc([C@@H]2c3cc4c(cc3[C@H](O)[C@H]3COC(=O)[C@H]23)OCO4)cc(OC)c1OC", "note": "[PODOFILOX]", "values": [{"measurement": "T/C", "value": 144, "unit": "%"}]}
{"smiles": "O=C1OC[C@@H]2Cc3cc4c(cc3[C@@H](c3ccc5c(c3)OCO5)[C@@H]12)OCO4", "note": "[POLYGAMAIN]", "values": [{"measurement": "T/C", "value": 144, "unit": "%"}]}
{"smiles": "COc1cc([C@@H]2c3cc4c(cc3[C@H](O)[C@H]3COC(=O)[C@H]23)OCO4)cc(OC)c1O", "values": [{"measurement": "T/C", "value": 144, "unit": "%"}]}
{"smiles": "COc1cc([C@@H]2c3cc4c(cc3C[C@H]3COC(=O)[C@@H]32)OCO4)cc(OC)c1OC", "note": "[DESOXYPODOPHYLLOTOXIN]", "values": [{"measurement": "T/C", "value": 144, "unit": "%"}]}
{"smiles": "COc1ccc2c(c1OC)[C@@H](c1ccc3c(c1)OCO3)C1=C(COC1=O)C2", "values": [{"measurement": "T/C", "value": 144, "unit": "%"}]}
